Among the data in US10889573B2, “Anthelmintic quinoline-3-carboxamide derivatives” (Bayer Animal Health GMBH, priority 2016, dated 2021) are inhibition, EC50 and mortality values, retold here.

For assay [1], the system named is Nippostrongylus brasiliensis. Kind of assay: In vitro assay 2: Nippostrongylus brasiliensis (NIPOBR), acetylcholine esterase readout. Conditions: read-out: activity (reduction of AChE compared to negative control); for inhibition at 1 µg/mL: 1 μg/ml. The protocol:
In Vitro Assay 2: Nippostrongylus brasiliensis (NIPOBR)
Adult Nippostrongylus brasiliensis were washed with saline buffer containing 100 U/ml penicillin, 0.1 mg/ml streptomycin and 2.5 μg/ml amphotericin B. Test compounds were dissolved in DMSO and worms were incubated in medium in a final concentration of 10 μg/ml (10 ppm) respectively 1 μg/ml (1 ppm). An aliquot of the medium was used to determine the acetylcholine esterase activity in comparison to a negative control. The principle of measuring acetylcholine esterase as readout for anthelmintic activity was described in Rapson et al (1986) and Rapson et al (1987).

Assay [2] concerns Dirofilaria immitis microfilariae. Nature of the assay: In vitro assay 3: Dirofilaria immitis microfilariae (DIROIM L1), motility. Conditions: 72 h, read-out: EC50 (reduction of motility), 72 h incubation.
Assay [3] relates to Dirofilaria immitis third-stage larvae. Nature of the assay: In vitro assay 4: Dirofilaria immitis (DIROIM L4), motility. Conditions: 72 h, read-out: EC50 (reduction of motility).
For the next assay, the system named is Cooperia curticei. Conditions: Cooperia curticei, 120 h, read-out: activity (larval mortality).
The test system of the next assay is Haemonchus contortus. The note with it: 120 h, read-out: activity (larval mortality).
Another assay has as its target C. elegans Slo-1a (Caenorhabditis elegans, UniProt Q95V25). Conditions: pE50 (negative decadic logarithm of EC50), CHO cells expressing C. elegans Slo-1a, voltage sensitive dye.

Bounds are passed on as bounds.

Sequence of C. elegans Slo-1a (Q95V25 whole entry): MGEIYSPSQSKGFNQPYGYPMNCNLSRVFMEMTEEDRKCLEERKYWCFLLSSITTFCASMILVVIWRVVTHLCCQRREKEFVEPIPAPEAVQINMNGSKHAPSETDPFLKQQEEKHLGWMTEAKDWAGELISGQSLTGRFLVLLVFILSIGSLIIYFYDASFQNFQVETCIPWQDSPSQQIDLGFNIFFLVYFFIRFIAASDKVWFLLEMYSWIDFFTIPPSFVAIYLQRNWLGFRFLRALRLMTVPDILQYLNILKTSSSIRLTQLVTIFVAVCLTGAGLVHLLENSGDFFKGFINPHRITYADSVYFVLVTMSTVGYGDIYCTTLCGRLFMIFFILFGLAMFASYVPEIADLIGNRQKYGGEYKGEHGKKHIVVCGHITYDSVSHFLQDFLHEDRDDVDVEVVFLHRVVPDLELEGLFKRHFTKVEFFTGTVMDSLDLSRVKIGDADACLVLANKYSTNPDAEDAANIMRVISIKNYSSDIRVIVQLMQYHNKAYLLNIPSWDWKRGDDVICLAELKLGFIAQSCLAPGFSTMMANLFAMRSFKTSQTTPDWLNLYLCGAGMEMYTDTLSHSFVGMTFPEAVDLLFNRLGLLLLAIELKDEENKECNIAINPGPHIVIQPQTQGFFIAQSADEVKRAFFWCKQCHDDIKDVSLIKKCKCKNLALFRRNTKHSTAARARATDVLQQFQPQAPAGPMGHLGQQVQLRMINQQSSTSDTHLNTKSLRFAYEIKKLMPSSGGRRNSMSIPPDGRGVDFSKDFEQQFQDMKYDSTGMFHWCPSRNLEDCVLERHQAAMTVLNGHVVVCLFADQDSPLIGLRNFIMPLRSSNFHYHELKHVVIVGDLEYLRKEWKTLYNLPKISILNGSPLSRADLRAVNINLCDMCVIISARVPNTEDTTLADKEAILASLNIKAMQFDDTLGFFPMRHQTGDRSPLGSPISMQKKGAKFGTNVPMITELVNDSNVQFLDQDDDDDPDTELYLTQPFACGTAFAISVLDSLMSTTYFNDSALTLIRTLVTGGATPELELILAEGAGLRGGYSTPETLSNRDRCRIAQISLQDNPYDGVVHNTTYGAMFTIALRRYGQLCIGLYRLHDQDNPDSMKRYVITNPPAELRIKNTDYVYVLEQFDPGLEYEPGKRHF
Experimental for C. elegans Slo-1a: In Vitro Assay 1: C. elegans Slo-1a—Action at a Recombinant C. elegans Cell Line
Cells were cultured at 37° C. and 5% CO2 in MEMalpha with Gutamax I (Invitrogen, Nr.: 32571), supplemented with 10% (v/v) heat inactivated fetal bovine serum (Invitrogen, Nr.: 10500), G418 (1 mg/ml, Invitrogen, Nr.: 10131). Cells were detached using Accutase (Sigma, Nr.: A6964).
Membrane Potential Measurements
Laboratory compound testing was performed on 384-well microtiter plates (MTPs, Greiner, Nr.: 781092). 8000 cells/well were plated onto 384-well MTPs and cultured for 20 to 24 hours at 37° C. and 5% CO2. After removal of the cell culture medium, the cells were washed once with tyrode (150 mM NaCl, 0.3 mM KCl, 2 mM CaCl2, 1 mM MgCl2, 0.8 mM NaH2PO4, 5 mM Glucose, 28 mM Hepes, pH 7.4) and then loaded with the voltage sensitive dye of the Membrane Potential Assay Kit diluted in tyrode for 1 h at room temperature.
After starting the measurement of fluorescence using a FLIPR Tetra (Molecular Devices, Exc. 510-545 nm, Emm. 565-625 nm), test compounds were added followed by the addition of KCl tyrode (final assay concentration: 70 mM KCl, 2 mM CaCl2, 1 mM MgCl2, 0.8 mM NaH2PO4, 5 mM Glucose, 28 mM Hepes, pH 7.4, including the voltage sensitive dye). The measurement was completed after 7 minutes.
The data were evaluated by using the ActivityBase XLfit software (IDBS) for curve fitting and calculation of the half-maximal effective concentration (EC50) and are reported as negative decadic logarithm (pE50).
Experimental for Cooperia curticei: In Vitro Assay 6: Cooperia curticei (COOPCU L3)
Solvent: dimethyl sulfoxide
Approximately 40 nematode larvae (Cooperia curticei) are transferred into a test tube containing the compound solution.
After 5 days percentage of larval mortality is recorded. 100% efficacy means all larvae are killed; 0% efficacy means no larvae are killed.
Experimental for Haemonchus contortus: In Vitro Assay 7: Haemonchus contortus (HAEMCO L3)
Solvent: dimethyl sulfoxide
Approximately 40 larvae of the red stomach worm (Haemonchus contortus) are transferred into a test tube containing compound solution.
After 5 days the percentage of larval mortality is recorded. 100% efficacy means all larvae are killed, 0% efficacy means no larvae are killed.

The EC50 is the concentration that produces a half-maximal response. The mortality is the percentage killed. As for `O=C(N[C@H]1CCOc2ccccc21)c1cnc2c(-c3cccc(Cl)c3Cl)cccc2c1N1CCC(O)C1` (mixture of isomers) [Example 194], the inhibition at 1 µg/mL in assay [1] was more than 80%. The values for the EC50 (in assay [2]; in assay [3]; on C. elegans Slo-1a) were less than 0.1 µg/mL, less than 0.1 µg/mL and less than 3.16 nM, respectively. The mortality at 4 ppm in the assay on Cooperia curticei stood at 100%; in the assay on Haemonchus contortus it was 90%. Also, the mortality at 20 ppm in the assay on Cooperia curticei and with Haemonchus contortus was 100% in each case.
Turning to `O=C(N[C@H]1CCOc2ccccc21)c1cnc2c(-c3cccc(F)c3Cl)cccc2c1N1CCC(O)C1` (mixture of isomers) [Example 258], the EC50 was less than 0.1 µg/mL in assay [2], less than 0.1 µg/mL in assay [3] and 3.16 to 31.6 nM on C. elegans Slo-1a. Besides, in the assay with Cooperia curticei, the mortality at 4 ppm came to 80%. In addition, the mortality at 20 ppm in the assay with Haemonchus contortus turned out to be 90%.
`O=C(N[C@H]1CCOc2ccccc21)c1cnc2c(-c3cccc(Cl)c3)cccc2c1N1CCC(O)C1` (mixture of isomers) [Example 260]: the inhibition at 1 µg/mL in assay [1] is more than 80%. In addition, the EC50 in assay [2] was less than 0.1 µg/mL; in assay [3] it was less than 0.1 µg/mL; on C. elegans Slo-1a, less than 3.16 nM. In addition, the mortality at 4 ppm with Cooperia curticei and with Haemonchus contortus was 80% throughout. Further, the mortality at 20 ppm with Cooperia curticei and in the assay on Haemonchus contortus was 90% in each case.
Consider `O=C(N[C@H]1CCOc2ccccc21)c1cnc2c(-c3cc(Cl)cc(C(F)(F)F)c3)cccc2c1N1CCC(O)C1` (mixture of isomers) [Example 271], for which the inhibition at 1 µg/mL in assay [1] is more than 80%. Also, the EC50 was less than 0.1 µg/mL in assay [2], less than 0.1 µg/mL in assay [3] and less than 3.16 nM at C. elegans Slo-1a. In addition, the mortality at 4 ppm in the assay with Cooperia curticei and in the assay with Haemonchus contortus was 90% throughout. Besides, the mortality at 20 ppm in the assay on Cooperia curticei and in the assay on Haemonchus contortus was 90% each time.
As for `COCCOc1c(C(=O)N[C@H]2CCOc3ccccc32)cnc2c(-c3cc(Cl)cc(Cl)c3)cccc12` [Example 338], in assay [1], the inhibition at 1 µg/mL is more than 80%. For the same compound, in assay [1] (10 μg/ml), the inhibition at 10 µg/mL was more than 80%. Further, the results for the EC50 (in assay [2]; in assay [3]; at C. elegans Slo-1a) were less than 0.1 µg/mL, less than 0.1 µg/mL and less than 3.16 nM, respectively. In addition, in the assay on Cooperia curticei, the mortality at 4 ppm came to 90%. Besides, the mortality at 20 ppm in the assay on Cooperia curticei is 90%.
With `O=C(N[C@H]1CCOc2ccccc21)c1cnc2c(-c3cc(Cl)cc(Cl)c3)cccc2c1N1CC(F)C1` [Example 392], in assay [1], the inhibition at 1 µg/mL was more than 80%. Besides, the half-maximal effective concentration (EC50) in assay [2] was less than 0.1 µg/mL; in assay [3] it was less than 0.1 µg/mL; at C. elegans Slo-1a, 3.16 to 31.6 nM. Besides, the mortality at 4 ppm in the assay with Haemonchus contortus turned out to be 80%. In the assay on Haemonchus contortus, the mortality at 20 ppm is 80%.
Take `Cc1ccc(F)c(-c2cccc3c(N(C)C)c(C(=O)N[C@H]4CCOc5ccccc54)cnc23)c1` [Example 437]: the inhibition at 1 µg/mL in assay [1] is more than 80%. Moreover, the EC50 in assay [2] is less than 0.1 µg/mL; in assay [3], less than 0.1 µg/mL; at C. elegans Slo-1a, less than 3.16 nM. Further, the mortality at 4 ppm in the assay with Cooperia curticei was 80%.
For `O=C(N[C@H]1CCOc2ccccc21)c1cnc2c(-c3cc(Cl)cc(Cl)c3)cccc2c1C1CCOCC1` [Example 539, 8-(3,5-dichlorophenyl)-N-[(4S)-3,4-dihydro-2H-chromen-4-yl]-4-(tetrahydro-2H-pyran-4-yl)quinoline-3-carboxamide], the EC50 was less than 0.1 µg/mL in assay [2], less than 0.1 µg/mL in assay [3] and less than 3.16 nM at C. elegans Slo-1a. The mortality at 4 ppm in the assay on Cooperia curticei and with Haemonchus contortus was 100% in each case. In addition, the mortality at 20 ppm with Cooperia curticei and with Haemonchus contortus was 100% each time.
`Cc1cc(-c2cccc3c(N4CCOCC4)c(C(=O)N[C@H]4CCOc5ccccc54)cnc23)cc(C(C)(C)C)c1` [Example 587]: the inhibition at 1 µg/mL in assay [1] was more than 80%. For the same compound, the figures for the EC50 (in assay [2]; in assay [3]; at C. elegans Slo-1a) were less than 0.1 µg/mL, less than 0.1 µg/mL and less than 3.16 nM, respectively. For the same compound, the mortality at 20 ppm with Cooperia curticei was 80%.
